{"source": "patent US20160346219A1", "about": "“PHOSPHOLIPID-COATED THERAPEUTIC AGENT NANOPARTICLES AND RELATED METHODS” (Autotelic LLC, priority 2015, published 2016)", "assay": "Screening of lyoprotectants for stabilization of nanoparticles on lyophilization (particle size before lyophilization and after reconstitution)", "type": "physicochemical", "conditions": "single lyoprotectant, amounts 5-20% (FIG. 15)", "description": "FIG. 15 compares particle size as a function of lyoprotectant and lyoprotectant amount for representative phospholipid-coated therapeutic agent (paclitaxel) nanoparticles of the invention, PC-coated paclitaxel nanoparticle manufactured by thin film-hydration method (LM-101), before lyophilization and after reconstitution.", "data": [{"smiles": "OC[C@H]1O[C@H](O[C@H]2O[C@H](CO)[C@@H](O)[C@H](O)[C@H]2O)[C@H](O)[C@@H](O)[C@@H]1O", "note": "[Trehalose]", "values": [{"measurement": "stabilization of particles on lyophilization (lyoprotectant)", "value": "best in stabilizing the particles on lyophilization"}]}]}
